Measurements as given in patent US20140155410A1 (GlaxoSmithKline LLC, priority 2008, published 2014).

Legend:
GST-tagged FAK = biological target: T1, GST-tagged FAK (Homo sapiens, UniProt Q05397); experiment: Biochemical assay for FAK activity, Assay 1: phosphorylation of peptide substrate with radio-labeled ATP; conditions: 5 μM ATP, 30 min pre-incubation, read-out: Assay 1 FAK TRF PXC50 (converted)
T1 construct: purchased Invitrogen PV3832
Procedure: GST-tagged (glutathione S-transferase-tagged) FAK was purchased from Invitrogen (PV3832) (www.invitrogen.com). […] To measure inhibitors of FAK, compounds were first prepared as a 10× stock in 10% DMSO. […] A 6-nM GST-FAK solution was prepared in 1.1× reaction buffer containing 44 mM HEPES, pH=7.2, 11 mM MgCl2, 2.2 mM MnCl2, 1.1 mM DTT and 0.011% Tween-20. Then, 20 μL of the 6 nM GST-FAK solution were pre-incubated with the compounds for 30 min at room temperature. […] The reaction was allowed to proceed for 90 min before being quenched with 40 μL of 1% H3PO4. A portion of the reaction mixture (60 μL) was transferred to a phospho-cellulose filter plate (Millipore; www.millipore.com, MAPHNOB50) and incubated for 20 minutes. The plate was filtrated, washed three times using 150 μL of 0.5% H3PO4 and dried at 50° C. for 30 min. After the addition of 60 μL Microscint-20 to the plate, radioactivity was measured using a TopCount (PerkinElmer; www.PerkinElmer.com).

[1] = biological target: T2, Full length Human FAK (Flag-His-TEV-FAK1) (Homo sapiens, UniProt Q05397); experiment: Biochemical assay for FAK activity, Assay 2: LANCE Ultra ULight peptide phosphorylation, 665 nm/615 nm ratio; conditions: Flag-His-TEV-FAK1, 10 μM ATP, 30 min pre-incubation; read-out: Assay 2 FAK H 31284A TRF PXC50 (converted)
T2 construct: Full length Human FAK was expressed using baculovirus in Sf9 cells; made in house; host or cells: baculovirus in Sf9 cells
T2 sequence (Q05397 whole entry): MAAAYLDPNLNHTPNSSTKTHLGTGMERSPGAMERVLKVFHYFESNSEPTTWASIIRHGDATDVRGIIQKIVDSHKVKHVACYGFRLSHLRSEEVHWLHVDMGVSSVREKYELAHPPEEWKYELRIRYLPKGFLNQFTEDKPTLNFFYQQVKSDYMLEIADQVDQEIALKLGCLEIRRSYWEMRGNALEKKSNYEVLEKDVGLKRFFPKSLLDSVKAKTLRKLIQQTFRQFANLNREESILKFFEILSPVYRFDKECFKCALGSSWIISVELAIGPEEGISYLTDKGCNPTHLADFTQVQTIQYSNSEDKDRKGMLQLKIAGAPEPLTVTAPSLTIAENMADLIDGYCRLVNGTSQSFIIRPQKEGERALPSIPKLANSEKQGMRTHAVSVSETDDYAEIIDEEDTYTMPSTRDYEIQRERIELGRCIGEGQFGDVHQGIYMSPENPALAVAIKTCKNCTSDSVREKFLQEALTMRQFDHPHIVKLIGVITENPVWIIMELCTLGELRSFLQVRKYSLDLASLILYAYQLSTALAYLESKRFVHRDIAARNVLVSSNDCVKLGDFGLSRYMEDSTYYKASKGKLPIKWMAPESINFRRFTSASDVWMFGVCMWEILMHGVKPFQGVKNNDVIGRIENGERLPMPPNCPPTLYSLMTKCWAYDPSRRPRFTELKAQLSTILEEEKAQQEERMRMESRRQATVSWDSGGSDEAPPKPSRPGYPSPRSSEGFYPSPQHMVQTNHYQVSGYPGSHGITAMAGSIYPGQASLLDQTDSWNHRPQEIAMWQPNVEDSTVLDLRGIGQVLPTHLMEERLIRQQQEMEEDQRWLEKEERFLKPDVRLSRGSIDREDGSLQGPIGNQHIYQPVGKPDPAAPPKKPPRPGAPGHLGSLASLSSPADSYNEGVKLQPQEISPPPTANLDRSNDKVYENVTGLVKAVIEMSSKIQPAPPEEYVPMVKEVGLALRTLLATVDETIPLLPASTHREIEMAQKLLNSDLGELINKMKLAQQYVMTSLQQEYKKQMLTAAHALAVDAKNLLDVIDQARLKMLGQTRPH
Procedure: Flag-His-TEV-FAK1 was prepared in-house. Full length Human FAK was expressed using baculovirus in Sf9 cells with N-terminal FLAG-6×His tags followed by a TEV cleavage site (FLAG-6×His-TEV-huFAK). […] To measure inhibitors of FAK, compounds were first prepared as a 100× stock in 100% DMSO. […] After incubating for 120 minutes at room temperature, the reaction is quenched by adding 5 uL of 20 mM EDTA and 5nMEu-Anti-pTyr antibody in 1× LANCE detection buffer.

T1 sequence (Q05397 whole entry): as above

SMILES	IC50 (GST-tagged FAK)	IC50 [1]
CNC(=O)c1cc(F)c(F)cc1Nc1cc(Nc2cc(C)nn2C)ncc1Cl [Example 9, 2-({5-Chloro-2-[(1,3-dimethyl-1H-pyrazol-5-yl)amino]-4-pyridinyl}amino)-4,5-difluoro-N-methylbenzamide]	1 nM	6.31 nM
CNC(=O)c1cc(Cl)ccc1Nc1cc(Nc2cc(C)nn2C)ncc1Cl [Example 11, 5-Chloro-2-({5-chloro-2-[(1,3-dimethyl-1H-pyrazol-5-yl)amino]-4-pyridinyl}amino)-N-methylbenzamide]	2 nM	6.31 nM
CCn1nccc1Nc1cc(Nc2ccc(Cl)cc2C(=O)NC)c(Cl)cn1 [Example 12, 5-Chloro-2-({5-chloro-2-[(1-ethyl-1H-pyrazol-5-yl)amino]-4-pyridinyl}amino)-N-methylbenzamide]	2.51 nM	5.01 nM
CCn1nc(C)cc1Nc1cc(Nc2ccccc2C(=O)NC)c(Cl)cn1 [Example 13, 2-({5-Chloro-2-[(1-ethyl-3-methyl-1H-pyrazol-5-yl)amino]-4-pyridinyl}amino)-N-methylbenzamide]	0.501 nM	2 nM
CNC(=O)c1ccccc1Nc1cc(Nc2cc(C(C)(C)C)nn2C)ncc1Cl [Example 14, 2-[(5-Chloro-2-{[3-(1,1-dimethylethyl)-1-methyl-1H-pyrazol-5-yl)amino]-4-pyridinyl}amino]-N-methylbenzamide]	2.51 nM	20 nM
CCn1nc(CO)cc1Nc1cc(Nc2ccccc2C(=O)NC)c(Cl)cn1 [Example 15, 2-[(5-Chloro-2-{[1-ethyl-3-(hydroxymethyl)-1H-pyrazol-5-yl]amino}-4-pyridinyl)amino]-N-methylbenzamide]	2.51 nM	20 nM
CNC(=O)c1ccccc1Nc1cc(Nc2cc(C)nn2CCO)ncc1Cl [Example 16, 2-[(5-Chloro-2-{[1-(2-hydroxyethyl)-3-methyl-1H-pyrazol-5-yl]amino}-4-pyridinyl)amino]-N-methylbenzamide]	1.26 nM	20 nM
CCOC(=O)c1cc(Nc2cc(Nc3ccccc3C(=O)NC)c(Cl)cn2)n(CC)n1 [Example 17, Ethyl 5-{[5-chloro-4-({2-[(methylamino)carbonyl]phenyl}amino)-2-pyridinyl]amino}-1-ethyl-1H-pyrazole-3-carboxylate]	1.26 nM	39.8 nM
CCn1nc(C(=O)NOC)cc1Nc1cc(Nc2ccccc2C(=O)NC)c(Cl)cn1 [Example 19, 5-{[5-Chloro-4-({2-[(methylamino)carbonyl]phenyl}amino)-2-pyridinyl]amino}-1-ethyl-N-(methyloxy)-1H-pyrazole-3-carboxamide]	5.01 nM	63.1 nM
CCn1nc(C(=O)NC)cc1Nc1cc(Nc2ccccc2C(=O)NC)c(Cl)cn1 [Example 20, 5-{[5-Chloro-4-({2-[(methylamino)carbonyl]phenyl}amino)-2-pyridinyl]amino}-1-ethyl-N-methyl-1H-pyrazole-3-carboxamide]	10 nM	39.8 nM
CNC(=O)c1ccccc1Nc1cc(Nc2cc(C)nn2CC(F)(F)F)ncc1Cl [Example 21, 2-[(5-Chloro-2-{[3-methyl-1-(2,2,2-trifluoroethyl)-1H-pyrazol-5-yl]amino}-4-pyridinyl)amino]-N-methylbenzamide]	3.16 nM	63.1 nM
CNC(=O)c1ccccc1Nc1cc(Nc2ccnn2C2CCN(C)CC2)ncc1Cl [Example 22, 2-[(5-Chloro-2-{[1-(1-methyl-4-piperidinyl)-1H-pyrazol-5-yl]amino}-4-pyridinyl)amino]-N-methylbenzamide]	31.6 nM	251 nM
CNC(=O)c1ccccc1Nc1cc(Nc2cc(C)nn2CCN(C)C)ncc1Cl [Example 23, 2-{[5-Chloro-2-({1-[2-(dimethylamino)ethyl]-3-methyl-1H-pyrazol-5-yl}amino)-4-pyridinyl]amino}-N-methylbenzamide]	79.4 nM	200 nM
CCn1nc(C(=O)NCCN(C)C)cc1Nc1cc(Nc2ccccc2C(=O)NC)c(Cl)cn1 [Example 24, 5-{[5-Chloro-4-({2-[(methylamino)carbonyl]phenyl}amino)-2-pyridinyl]amino}-N-[2-(dimethylamino)ethyl]-1-ethyl-1H-pyrazole-3-carboxamide]	6.31 nM	63.1 nM
CCn1nc(C(=O)N(C)CCN(C)C)cc1Nc1cc(Nc2ccccc2C(=O)NC)c(Cl)cn1 [Example 25, 5-{[5-Chloro-4-({2-[(methylamino)carbonyl]phenyl}amino)-2-pyridinyl]amino}-N-[2-(dimethylamino)ethyl]-1-ethyl-N-methyl-1H-pyrazole-3-carboxamide]	2.51 nM	31.6 nM
CNC(=O)c1ccccc1Nc1cc(Nc2cn(C)nc2C)ncc1Cl [Example 26, 2-({5-Chloro-2-[(1,3-dimethyl-1H-pyrazol-4-yl)amino]-4-pyridinyl}amino)-N-methylbenzamide]	0.398 nM	3.98 nM
CNC(=O)c1ccccc1Nc1cc(Nc2cc(C)nn2C)ncc1C(F)(F)F [Example 28, 2-{[2-[(1,3-Dimethyl-1H-pyrazol-5-yl)amino]-5-(trifluoromethyl)-4-pyridinyl]amino}-N-methylbenzamide]	0.398 nM	2.51 nM
CCn1nccc1Nc1cc(Nc2ccccc2C(=O)NC)c(C(F)(F)F)cn1 [Example 29, 2-{[2-[(1-Ethyl-1H-pyrazol-5-yl)amino]-5-(trifluoromethyl)-4-pyridinyl]amino}-N-methylbenzamide]	0.501 nM	2 nM
CNC(=O)c1ccccc1Nc1cc(Nc2cc(C)nn2C(C)C)ncc1C(F)(F)F [Example 30, N-Methyl-2-{[2-[(3-methyl-1-(1-methylethyl)-1H-pyrazol-5-yl]amino}-5-(trifluoromethyl)-4-pyridinyl]amino}benzamide]	0.398 nM	1.58 nM
CCn1nc(C)cc1Nc1cc(Nc2ccccc2C(=O)NC)c(C(F)(F)F)cn1 [Example 32, 2-{[2-[(1-Ethyl-3-methyl-1H-pyrazol-5-yl)amino]-5-(trifluoromethyl)-4-pyridinyl]amino}-N-methylbenzamide]	0.398 nM	1 nM
CONC(=O)c1ccccc1Nc1cc(Nc2cc(C)nn2C)ncc1Cl [Example 36, 2-({5-Chloro-2-[(1,3-dimethyl-1H-pyrazol-5-yl)amino]-4-pyridinyl}amino)-N-(methyloxy)benzamide]	0.398 nM	1.58 nM
Cc1cc(Nc2cc(Nc3ccccc3C(=O)NOCCN(C)C)c(Cl)cn2)n(C)n1 [Example 38, 2-({5-Chloro-2-[(1,3-dimethyl-1H-pyrazol-5-yl)amino]-4-pyridinyl}amino)-N-{[2-(dimethylamino)ethyl]oxy}benzamide]	251 nM	1000 nM
CCn1nc(C)cc1Nc1cc(Nc2ccccc2C(=O)NOC)c(Cl)cn1 [Example 39, 2-({5-Chloro-2-[(1-ethyl-3-methyl-1H-pyrazol-5-yl)amino]-4-pyridinyl}amino)-N-(methyloxy)benzamide]	0.398 nM	5.01 nM
CCn1nccc1Nc1cc(Nc2ccccc2C(=O)NOC)c(Cl)cn1 [Example 40, 2-({5-Chloro-2-[(1-ethyl-1H-pyrazol-5-yl)amino]-4-pyridinyl}amino)-N-(methyloxy)benzamide]	1.26 nM	2.51 nM
CONC(=O)c1ccccc1Nc1cc(Nc2cc(C)nn2C(C)C)ncc1Cl [Example 41, 2-[(5-Chloro-2-{[3-methyl-1-(1-methylethyl)-1H-pyrazol-5-yl]amino}-4-pyridinyl)amino]-N-(methyloxy)benzamide]	0.398 nM	2 nM
CCNC(=O)c1ccccc1Nc1cc(Nc2cc(C)nn2CC)ncc1Cl [Example 42, 2-({5-Chloro-2-[(1-ethyl-3-methyl-1H-pyrazol-5-yl)amino]-4-pyridinyl}amino)-N-ethylbenzamide]	12.6 nM	50.1 nM
CCNC(=O)c1ccccc1Nc1cc(Nc2cc(C)nn2C)ncc1Cl [Example 43, 2-({5-Chloro-2-[(1,3-dimethyl-1H-pyrazol-5-yl)amino]-4-pyridinyl}amino)-N-ethylbenzamide]	5.01 nM	25.1 nM
CCNC(=O)c1ccccc1Nc1cc(Nc2cc(C)nn2C(C)C)ncc1Cl [Example 45, 2-[(5-Chloro-2-{[3-methyl-1-(1-methylethyl)-1H-pyrazol-5-yl]amino}-4-pyridinyl)amino]-N-ethylbenzamide]	10 nM	63.1 nM
CNC(=O)c1ccccc1Nc1cc(Nc2cnn(C)c2C)ncc1Cl [Example 59, 2-({5-Chloro-2-[(1,5-dimethyl-1H-pyrazol-4-yl)amino]-4-pyridinyl}amino)-N-methylbenzamide]	0.631 nM	5.01 nM
